# Structures can show the parent of a compound that is named as a salt. Where two headings read alike, the source gives them in different places.
# How the values were obtained:
# HSA = HSA (Homo sapiens, UniProt P02768); experiment: HSA binding (plasma protein binding); type: in vitro ADME
# HSA, sequence (P02768 25-609): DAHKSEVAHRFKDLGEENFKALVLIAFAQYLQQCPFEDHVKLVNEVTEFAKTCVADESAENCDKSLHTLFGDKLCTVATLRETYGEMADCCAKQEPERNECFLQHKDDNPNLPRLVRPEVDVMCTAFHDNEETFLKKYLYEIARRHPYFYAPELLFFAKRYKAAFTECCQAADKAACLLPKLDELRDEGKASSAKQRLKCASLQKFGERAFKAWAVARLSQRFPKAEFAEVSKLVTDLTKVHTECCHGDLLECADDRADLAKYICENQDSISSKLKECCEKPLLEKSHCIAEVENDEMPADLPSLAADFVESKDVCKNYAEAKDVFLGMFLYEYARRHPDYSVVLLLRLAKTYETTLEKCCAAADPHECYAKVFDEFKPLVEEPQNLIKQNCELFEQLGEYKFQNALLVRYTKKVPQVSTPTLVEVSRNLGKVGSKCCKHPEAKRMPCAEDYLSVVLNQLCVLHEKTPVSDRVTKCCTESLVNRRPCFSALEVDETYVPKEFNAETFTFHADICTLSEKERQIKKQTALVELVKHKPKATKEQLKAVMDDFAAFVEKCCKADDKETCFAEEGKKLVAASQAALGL
Compound,HSA binding (HSA),AMP (PAMPA),AMP (Tables 2 and 5)
"Fc1ccc(-c2nc(C3CCNCC3)sc2-c2ccnc(N3CCC(N4CCOCC4)CC3)n2)cc1 [Compound 56, 4-(1-(4-(4-(4-Fluorophenyl)-2-(piperidin-4-yl)thiazol-5-yl)pyrimidin-2-yl)piperidin-4-yl)morpholine]",90%,,
"CCOc1nccc(Nc2nccc(-c3sc(C4CCNCC4)nc3-c3ccc(F)cc3)n2)n1 [Compound 30, N-(2-Ethoxypyrimidin-4-yl)-4-[4-(4-fluorophenyl)-2-(piperidin-4-yl)-1,3-thiazol-5-yl]pyrimidin-2-amine Trifluoroacetate]",,1.7,
"Fc1ccc(-c2nc(C3CCNCC3)sc2-c2ccnc(NCCN3CCCC3)n2)cc1 [Compound 47, 4-[4-(4-Fluorophenyl)-2-(piperidin-4-yl)-1,3-thiazol-5-yl]-N-[2-(pyrrolidin-1-yl)ethyl]pyrimidin-2-amine]",86%,,
"Oc1cc(Nc2nccc(-c3sc(C4CCNCC4)nc3-c3ccc(F)cc3)n2)ccn1 [Compound 33, 4-({4-[4-(4-Fluorophenyl)-2-(piperidin-4-yl)-1,3-thiazol-5-yl]pyrimidin-2-yl}amino)pyridin-2-ol Trifluoroacetate]",,0.2,
CCOC(=O)N1CCC(c2nc(-c3ccc(F)cc3)c(-c3ccnc(Nc4ccc(N5CCN(C)CC5)cc4)n3)s2)CC1 [Compound 8],98%,,
"Fc1ccc(-c2nc(C3CCNCC3)sc2-c2ccnc(Nc3cccnn3)n2)cc1 [Compound 27, N-(4-(4-(4-Fluorophenyl)-2-(piperidin-4-yl)thiazol-5-yl)pyrimidin-2-yl)pyridazin-3-amine]",90%,,1.9e-06 cm/s
"Cc1nc(Nc2nccc(-c3sc(C4CCNCC4)nc3-c3ccc(F)cc3)n2)cc(C2CCC2)c1F [Compound 38, N-(4-Cyclobutyl-5-fluoro-6-methylpyridin-2-yl)-4-(4-(4-fluorophenyl)-2-(piperidin-4-yl)thiazol-5-yl)pyrimidin-2-amine]",98%,,
"Cc1cc(Nc2nccc(-c3sc(C4CCNCC4)nc3-c3ccc(F)cc3)n2)nn1C [Compound 23, N-(1,5-Dimethyl-1H-pyrazol-3-yl)-4-(4-(4-fluorophenyl)-2-(piperidin-4-yl)thiazol-5-yl)pyrimidin-2-amine]",93%,,2e-06 cm/s
"Fc1ccc(-c2nc(N3CCCC3)sc2-c2ccnc(Nc3ccc(N4CCNCC4)cc3)n2)cc1 [Compound 10, 4-[4-(4-Fluorophenyl)-2-(pyrrolidin-1-yl)-1,3-thiazol-5-yl]-N-[4-(piperazin-1-yl)phenyl]pyrimidin-2-amine Trifluoroacetate]",,2.7,
"COc1cc(Nc2nccc(-c3sc(C4CCNCC4)nc3-c3ccc(F)cc3)n2)cc(C)n1 [Compound 34, 4-[4-(4-Fluorophenyl)-2-(piperidin-4-yl)-1,3-thiazol-5-yl]-N-(2-methoxy-6-methylpyridin-4-yl)pyrimidin-2-amine Trifluoroacetate]",,1.9,
"Fc1ccc(-c2nc(C3CCNCC3)sc2-c2ccnc(Nc3ccccn3)n2)cc1 [Compound 25, 4-(4-(4-Fluorophenyl)-2-(piperidin-4-yl)thiazol-5-yl)-N-(pyridin-2-yl)pyrimidin-2-amine]",94%,,3.3e-06 cm/s
"OCCNc1nccc(-c2sc(C3CCNCC3)nc2-c2ccc(F)cc2)n1 [Compound 42, 2-({4-[4-(4-Fluorophenyl)-2-(piperidin-4-yl)-1,3-thiazol-5-yl]pyrimidin-2-yl}amino)ethanol]",79%,,
"CN1CCC(C(=O)Nc2nc(-c3ccc(F)cc3)c(-c3ccnc(Nc4ccc(N5CCNCC5)cc4)n3)s2)CC1 [Compound 16, N-[4-(4-Fluorophenyl)-5-{2-[4-(piperazin-1-yl)anilino]pyrimidin-4-yl}-1,3-thiazol-2-yl]-1-methylpiperidine-4-carboxamide Trifluoroacetate]",,0.1,
"CCc1cc(Nc2nccc(-c3sc(C4CCNCC4)nc3-c3ccc(F)cc3)n2)nc(C)c1F [Compound 36, N-(4-Ethyl-5-fluoro-6-methylpyridin-2-yl)-4-(4-(4-fluorophenyl)-2-(piperidin-4-yl)thiazol-5-yl)pyrimidin-2-amine]",97%,,
"Fc1ccc(-c2nc(C3CCNCC3)sc2-c2ccnc(Nc3nncs3)n2)cc1 [Compound 19, N-(4-(4-(4-Fluorophenyl)-2-(piperidin-4-yl)thiazol-5-yl)pyrimidin-2-yl)-1,3,4-thiadiazol-2-amine]",92%,,< 1e-07 cm/s
"CN1CCC(Nc2nccc(-c3sc(C4CCNCC4)nc3-c3ccc(F)cc3)n2)C1 (centres unmarked) [Compound 52, 4-[4-(4-Fluorophenyl)-2-(piperidin-4-yl)-1,3-thiazol-5-yl]-N-(1-methylpyrrolidin-3-yl)pyrimidin-2-amine]",89%,,
"Fc1ccc(-c2nc(C3CCNCC3)sc2-c2ccnc(N3CCC(N4CCC4)CC3)n2)cc1 [Compound 55, 2-[4-(Azetidin-1-yl)piperidin-1-yl]-4-[4-(4-fluorophenyl)-2-(piperidin-4-yl)-1,3-thiazol-5-yl]pyrimidine]",90%,,

Compound,HSA binding (HSA),AMP (PAMPA),AMP (Tables 2 and 5)
"OC1CCN(c2nccc(-c3sc(C4CCNCC4)nc3-c3ccc(F)cc3)n2)C1 (centres unmarked) [Compound 54, 1-{4-[4-(4-Fluorophenyl)-2-(piperidin-4-yl)-1,3-thiazol-5-yl]pyrimidin-2-yl}pyrrolidin-3-ol]",85%,,
"CN(C)C(CNc1nccc(-c2sc(C3CCNCC3)nc2-c2ccc(F)cc2)n1)C1CC1 (centres unmarked) [Compound 46, 1-Cyclopropyl-N′-{4-[4-(4-fluorophenyl)-2-(piperidin-4-yl)-1,3-thiazol-5-yl]pyrimidin-2-yl}-N,N-dimethylethane-1,2-diamine]",91%,,
"O[C@H]1CC[C@H](Nc2nccc(-c3sc(C4CCNCC4)nc3-c3ccc(F)cc3)n2)CC1 [Compound 51, trans-4-({4-[4-(4-Fluorophenyl)-2-(piperidin-4-yl)-1,3-thiazol-5-yl]pyrimidin-2-yl}amino)cyclohexanol]",85%,,
"CN(C)CCNc1nccc(-c2sc(C3CCNCC3)nc2-c2ccc(F)cc2)n1 [Compound 45, N′-{4-[4-(4-Fluorophenyl)-2-(piperidin-4-yl)-1,3-thiazol-5-yl]pyrimidin-2-yl}-N,N-dimethylethane-1,2-diamine]",83%,,
"O=C(Nc1nc(-c2ccc(F)cc2)c(-c2ccnc(Nc3ccc(N4CCNCC4)cc3)n2)s1)C1CC1 [Compound 15, N-[4-(4-Fluorophenyl)-5-{2-[4-(piperazin-1-yl)anilino]pyrimidin-4-yl}-1,3-thiazol-2-yl]cyclopropanecarboxamide Trifluoroacetate]",,0.2,
"O=S(=O)(Nc1nc(-c2ccc(F)cc2)c(-c2ccnc(Nc3ccc(N4CCNCC4)cc3)n2)s1)C1CCNCC1 [Compound 18, N-[4-(4-Fluorophenyl)-5-{2-[4-(piperazin-1-yl)anilino]pyrimidin-4-yl}-1,3-thiazol-2-yl]piperidine-4-sulfonamide Trifluoroacetate]",,0.3,
"Fc1ccc(-c2nc(N3CCOCC3)sc2-c2ccnc(Nc3ccc(N4CCNCC4)cc3)n2)cc1 [Compound 9, 4-[4-(4-Fluorophenyl)-2-(morpholin-4-yl)-1,3-thiazol-5-yl]-N-[4-(piperazin-1-yl)phenyl]pyrimidin-2-amine Trifluoroacetate]",,2.8,
"Fc1ccc(-c2nc(C3CCNCC3)sc2-c2ccnc(N3CCC(CN4CCOCC4)CC3)n2)cc1 [Compound 57, 4-((1-(4-(4-(4-Fluorophenyl)-2-(piperidin-4-yl)thiazol-5-yl)pyrimidin-2-yl)piperidin-4-yl)methyl)morpholine]",93%,,
"c1cc(Nc2nccc(-c3sc(C4CCNCC4)nc3C3CC3)n2)ncn1 [Compound 58, 4-(4-Cyclopropyl-2-(piperidin-4-yl)thiazol-5-yl)-N-(pyrimidin-4-yl)pyrimidin-2-amine Hydrochloride]",,1.8,
"Fc1ccc(-c2nc(C3CCNCC3)sc2-c2ccnc(N3CCCC3)n2)cc1 [Compound 53, 4-[4-(4-Fluorophenyl)-2-(piperidin-4-yl)-1,3-thiazol-5-yl]-2-(pyrrolidin-1-yl)pyrimidine]",93%,,
"CN1CCN(c2ccc(Nc3nccc(-c4sc(N)nc4-c4ccc(F)cc4)n3)cc2)CC1 [Compound 11, 4-[2-Amino-4-(4-fluorophenyl)-1,3-thiazol-5-yl]-N-[4-(4-methylpiperazin-1-yl)phenyl]pyrimidin-2-amine Trifluoroacetate]",,2.6,
"CCCS(=O)(=O)Nc1nc(-c2ccc(F)cc2)c(-c2ccnc(Nc3ccc(N4CCNCC4)cc3)n2)s1 [Compound 17, N-[4-(4-Fluorophenyl)-5-{2-[4-(piperazin-1-yl)anilino]pyrimidin-4-yl}-1,3-thiazol-2-yl]propane-1-sulfonamide Trifluoroacetate]",,0.3,
"COCCNc1nccc(-c2sc(C3CCNCC3)nc2-c2ccc(F)cc2)n1 [Compound 43, 4-[4-(4-Fluorophenyl)-2-(piperidin-4-yl)-1,3-thiazol-5-yl]-N-(2-methoxyethyl)pyrimidin-2-amine]",80%,,
"Fc1ccc(-c2nc(C3CCNCC3)sc2-c2ccnc(NCC3CCCO3)n2)cc1 (centres unmarked) [Compound 44, 4-[4-(4-Fluorophenyl)-2-(piperidin-4-yl)-1,3-thiazol-5-yl]-N-(tetrahydrofuran-2-ylmethyl)pyrimidin-2-amine]",86%,,
"Fc1ccc(-c2nc(C3CCNCC3)sc2-c2ccnc(NCCN3CCOCC3)n2)cc1 [Compound 49, 4-(4-(4-Fluorophenyl)-2-(piperidin-4-yl)thiazol-5-yl)-N-(2-morpholinoethyl)pyrimidin-2-amine]",83%,,
"CN1CCN(CCNc2nccc(-c3sc(C4CCNCC4)nc3-c3ccc(F)cc3)n2)CC1 [Compound 48, 4-[4-(4-Fluorophenyl)-2-(piperidin-4-yl)-1,3-thiazol-5-yl]-N-[2-(4-methylpiperazin-1-yl)ethyl]pyrimidin-2-amine]",90%,,
"Nc1nc(-c2ccc(F)cc2)c(-c2ccnc(Nc3ccc(N4CCNCC4)cc3)n2)s1 [Compound 12, 4-[2-Amino-4-(4-fluorophenyl)-1,3-thiazol-5-yl]-N-[4-(piperazin-1-yl)phenyl]pyrimidin-2-amine]",98%,,

# From paper PMC6816013 (Journal of Medicinal Chemistry, 2019)
